Laboratory results published in patent publication EP0364581A1, “METHOD OF STERILIZING PLANT POLLEN” (VSESOJUZNY NAUCHNO-ISSLEDOVATELSKY INST. SELSKOKHOZYAISTV. …, priority 1988, dated 1989).
Like-named read-outs stand apart in the source and are kept apart here.

Legend:
Assay in all cases: field test of gametocidal activity (sterilisation of anthers)
Assay type in all cases: in vivo
[1] = tested on: Winterweizen Mironovskaya 808; conditions: treated in V. Periode der Organogenese, 2%ige wäßrige Emulsion, 20 kg/ha; for Prozentsatz des Ansetzens der Körner bei freier Bestäubung: control = 100
Description: (§1) Die gametozide Aktivität der erfindungsgemäßen Sterilisationsmittel war in Feldversuch in verschiedenen bodenklimatischen Zonen mit Teilstücken von 10 m^2 Größe in drei-- bis viermaliger Wiederholung nachgewiesen. Jedes Sterilisationsmittel wurde mindestens 5 Jahre lang geprüft.
(§2) Die Entwicklung der Perioden der Organogenese wird zytologisch überwacht. Die Behandlung von Pflanzen mit dem Sterilisationsmittel erfolgt am Anfang der fünften Periode der Organogenese nach Kupermann.
(§3) Mit dem Ahrenschieben verwirklicht man die Isolierung von Hauptähren und anderen Stockwerken in Pergamentbeuteln. Bei Weizen und Tritikale werden Einzelisolatoren verwendet. Bei Roggen schließt man je 1 Ähre von 5 bis 7 verschiedenen nebeneinander befindlichen Pflanzen in einen gemeinsamen Isolator ein. Bei Hirse wird jede Rispe getrennt isoliert. Der Sterilitätsprozentsatz (X) für Weizen, Roggen, Tritikale und Hirse wird nach der Formel [formula]
(§4) Samen von unbehandelten Kontrollpflanzen ermittelt.
(§5) Die Kornzahl in nicht isolierten Ähren von Kontrollpflanzen wird bedingt für 100% Ansetzen bei freier Bestäubung angenommen.
(§6) Um zuverlässige Angaben zu erhalten, verwendet man 20 bis 25 Isolatoren jeder Wiederholung für Weizen und Tritikale, 10 bis 15 Isolatoren jeder Wiederholung für Roggen und Hirse.
Pflanzen des Winterweizens Sorte Mironovskaya 808 werden in der V. Periode der Organogenese durch Zerstäubung einer 2%igen wäßrigen Emulsion des Kaliumsalzes von 2-Methyl-3-zyklohexenkarbonsäure mit Hilfe einer Rückenspritze behandelt. Als Emulgiermittel setzt man 0,1 Masse% C12--C14 - Kalziumalkylbenzolsulfonat zu. Als Adjuvans führt man in die Emulsion 0,01 Masse% Dimethylformamid ein. Der Verbrauch an Präparat beträgt 20 kg/ha. Als Kontrolle dienen Pflanzen, behandelt mit einem Verdünner ohne Sterilisationsmittel. Die Ergebnisse sind in der Tabelle 1 angegeben. […] Periode der Organogenese erhalten.
Der Prozeß wird analog zu dem in Beispiel 1 beschriebenen durchgeführt. Als Sterilisationsmittel verwendet man eine 2%ige wäßrige Emulsion von 2-Methyl-3-zyklohexenkarbon- säuremethylester, Ammoniumsalz der 2-Methyl-[…], Phthalsäuredihexylester, Phthalsäuredibutylester, Phthalsäuredipropylester, Phthalsäurediisobutylester, Phthalsäurediäthylester. Die Ergebnisse sind in der Tabelle 1 angeführt. […]

[2] = tested on: tetraploidem Roggen Sorte Belta; conditions: V. Periode, 1%ige wäßrige Emulsion, 6 kg/ha
Description: as §1, §2, §3, §4, §5, §6
Pflanzen von tetraploidem Roggen Sorte Belta werden in der V. Periode der Organogenese (nach Kupermann) mit einer 1%igen wäßrigen Emulsion von Kaliumsalz der 2-Methyl-3-zy- klohexenkarbonsäure, 2-Methyl-3-zyklohexenkarbonsäuremethyl- ester, Phthalsäuredibutylester, Phthalsäuredihexylester, Phthalsäuredipropylester, Phthalsäurediallylester, Phthalsäurediisobutylester, Kaliumsalz der […] behandelt. Die Emulsion enthält 0,01 Masse% Dimethylsuloxid und 0,1 Masse% C12-C14-Kalziumalkylbenzolsulfonat. Der Verbrauch an Präparat beträgt 6 kg/ha. Als Kontrolle dienen Pflanzen behandelt mit einem Verdünner ohne Sterilisationsmittel.

[3] = tested on: Diploider Roggen Chulpan; conditions: for response vs control in vivo at 8000 g/ha: read-out: Prozentsätz des Ansetzens der Körner bei freier Bestäubung; for percent sterility at 8000 g/ha / pest or weed control at 8000 g/ha: read-out: Prozentsatz der Sterilität
Description: as §1, §2, §3, §4, §5, §6
Pflanzen von diploidem Roggen Sorte Chulpan werden in der V. Periode der Organogenese (nach Kupermann) mit einer 1%igen wäßrigen Emulsion von Kaliumsalz der 2-Methyl-3-zy- klohexenkarbonsäure, 2-Methyl-3-zyklohexenkarbonsäuremethyl- ester, Kaliumsalz der Salizylsäure, Phthalsäurediallylester, Phthalsäurediisobutylester, Phthalsäuredipropylester, Phthalsäuredihexylester, Phthalsäuredibutylester. Die Emulsion enthält 0,01 Masse% Tetrahydrofuran und 0,1 Masse% C12-C14--Kalziumalkylbenzolsulfonat. Der Verbrauch an Präparat beträgt 8 kg/ha. Als Kuntrolle dienen Pflanzen, behandelt mit einem Verdünner ohne Sterilisationsmittel. […]

[4] = tested on: Hirse Sorte Mironovskoe 94; conditions: V. Periode, 1%ige wäßrige Emulsion, 10 kg/ha; for Prozentsatz des Ansetzens der Körner bei freier Bestäubung: control = 100
Description: as §1, §2, §3, §4, §5, §6
Pflanzen der Hirse Sorte Mironovskoe 94 werden in der V. Periode der Organogenese (nach Kupermann) mit einer l%igen wäßrigen Emulsion von Kaliumsalz der 2-Methyl-3-zyklohexen- karbonsäure, 2-Methyl-3-zyklohexenkarbonsäuremethylester, Phthalsäuredihexylester, Phthalsäuredibutylester, Phthalsäuredipropylester, Natriumsalz der p-Hydroxybenzoesäure, Phthalsäurediäthylester, Phthalsäurediallylester behandelt. Die Emulsion enthält 0,01 Masse% Dimethylformamid und 0,1 Masse% C12-C14-Kalziumalkylbenzolsulfonat. Der Verbrauch an Präparat beträgt 10 kg/ha. Als Kontrolle dienen Pflanzen, behandelt mit einem Verdünner ohne Sterilisationsmittel. Die Prüfergebnisse sind in der Tabelle 17 angeführt. […] Periode der Organogenese erhalten.

[5] = Chulpan, V. Periode, 1%ige wäßrige Emulsion, 8 kg/ha
[6] = Chulpan, V. Periode, 1%ige wäßrige Emulsion, 8 kg/ha, control = 100

CC1C=CCCC1C(=O)[O-].[K+] (stereo not shown) [Beispiel 1, Kaliumsalzes von 2-Methyl-3-zyklohexenkarbonsäure]
Kornzahl der Ähre bei freier Bestäubung [1]: 38,6
Kornzahl der Ähre im Isolator [1]: 3,2
Prozentsatz der Sterilität [1]: 91,5%
Prozentsatz des Ansetzens der Körner bei freier Bestäubung [1]: 95,5%

COC(=O)C1CCC=CC1C (stereo not shown) [Beispiel 2, 2-Methyl-3-zyklohexenkarbon-säuremethylester]
Kornzahl der Ähre bei freier Bestäubung [1]: 30,1
Kornzahl der Ähre im Isolator [1]: 0,0
Prozentsatz der Sterilität [1]: 100,0%
Prozentsatz des Ansetzens der Körner bei freier Bestäubung [1]: 74,5%

CC1C=CCCC1C(=O)O.N (stereo not shown) [Beispiel 3, Ammoniumsalz der 2-Methyl-23-zyklohexen-karbonsäure]
Kornzahl der Ähre bei freier Bestäubung [1]: 39,2
Kornzahl der Ähre im Isolator [1]: 0,6
Prozentsatz der Sterilität [1]: 98,4%
Prozentsatz des Ansetzens der Körner bei freier Bestäubung [1]: 97,0%

CCCCCCOC(=O)c1ccccc1C(=O)OCCCCCC [Beispiel 4, Phthalsäuredihexylester]
Kornzahl der Ähre bei freier Bestäubung [1]: 38,2
Kornzahl der Ähre im Isolator [1]: 4,2
Prozentsatz der Sterilität [1]: 88,9%
Prozentsatz des Ansetzens der Körner bei freier Bestäubung [1]: 94,5%

CCCCOC(=O)c1ccccc1C(=O)OCCCC [Beispiel 5, Phthalsäuredibutylester]
Kornzahl der Ähre bei freier Bestäubung [1]: 31,7
Kornzahl der Ähre im Isolator [1]: 0,0
Prozentsatz der Sterilität [1]: 100,0%
Prozentsatz des Ansetzens der Körner bei freier Bestäubung [1]: 78,5%

CCCOC(=O)c1ccccc1C(=O)OCCC [Beispiel 6, Phthalsäuredipropylester]
Kornzahl der Ähre bei freier Bestäubung [1]: 39,0
Kornzahl der Ähre im Isolator [1]: 5,0
Prozentsatz der Sterilität [1]: 86,8%
Prozentsatz des Ansetzens der Körner bei freier Bestäubung [1]: 96,5%

CC(C)COC(=O)c1ccccc1C(=O)OCC(C)C [Beispiel 7, Phthalsäurediisobutylester]
Kornzahl der Ähre bei freier Bestäubung [1]: 37,7
Kornzahl der Ähre im Isolator [1]: 0,2
Prozentsatz der Sterilität [1]: 99,5%
Prozentsatz des Ansetzens der Körner bei freier Bestäubung [1]: 93,3%

CCOC(=O)c1ccccc1C(=O)OCC [Beispiel 8, Phthalsäurediäthylester]
Kornzahl der Ähre bei freier Bestäubung [1]: 39,8
Kornzahl der Ähre im Isolator [1]: 0,5
Prozentsatz der Sterilität [1]: 98,7%
Prozentsatz des Ansetzens der Körner bei freier Bestäubung [1]: 98,5%

CC1C=CCCC1C(=O)O (stereo not shown) [Beispiel 48, Kaliumsalz der 2-Methyl-3-zy-klohexenkarbonsäure]
Kornzahl der Ähre bei freier Bestäubung [2]: 45,6
Kornzahl der Ähre im Isolator [2]: 0,1
Prozentsatz der Sterilität [2]: 99,8%
Prozentsatz des Ansetzens bei freier Bestäubung ([2]; control = 100): 96,8%

CC1C=CCCC1C(=O)O (stereo not shown) [Beispiel 60, Kaliumsalz der 2-Methyl-3-zy-klohexenkarbonsäure]
Kornzahl der Ähre bei freier Bestäubung [3, 5]: 55,2
Kornzahl der Ähre im Isolator [3, 5]: 0,0
response vs control in vivo at 8000 g/ha [3, 6]: 97.1%
percent sterility at 8000 g/ha [3, 5]: 100%

COC(=O)C1CCC=CC1C (stereo not shown) [Beispiel 61, 2-Methyl-3-zyklohexenkarbonsäuremethyl-ester]
Kornzahl der Ähre bei freier Bestäubung [3, 5]: 51,0
Kornzahl der Ähre im Isolator [3, 5]: 0,0
response vs control in vivo at 8000 g/ha [3, 6]: 89.8%
percent sterility at 8000 g/ha [3, 5]: 100%

O=C(O)c1ccccc1O [Beispiel 62, Kaliumsalz der Salizylsäure]
Kornzahl der Ähre bei freier Bestäubung [3, 5]: 50,4
Kornzahl der Ähre im Isolator [3, 5]: 10,4
pest or weed control at 8000 g/ha [3]: 79.7%
response vs control in vivo at 8000 g/ha [3]: 88.7%

C=CCOC(=O)c1ccccc1C(=O)OCC=C [Beispiel 63, Phthalsäurediallylester]
Kornzahl der Ähre bei freier Bestäubung [3, 5]: 53,7
Kornzahl der Ähre im Isolator [3, 5]: 0,3
percent sterility at 8000 g/ha [3, 5]: 99.4%
response vs control in vivo at 8000 g/ha [3]: 94.5%

CC(C)COC(=O)c1ccccc1C(=O)OCC(C)C [Beispiel 64, Phthalsäurediisobutylester]
Kornzahl der Ähre bei freier Bestäubung [3, 5]: 52,2
Kornzahl der Ähre im Isolator [3, 5]: 0,5
pest or weed control at 8000 g/ha [3]: 99%
response vs control in vivo at 8000 g/ha [3]: 91.9%

CCCOC(=O)c1ccccc1C(=O)OCCC [Beispiel 65, Phthalsäuredipropylester]
Kornzahl der Ähre bei freier Bestäubung [3, 5]: 53,2
Kornzahl der Ähre im Isolator [3, 5]: 0,0
pest or weed control at 8000 g/ha [3]: 100%
response vs control in vivo at 8000 g/ha [3]: 93.6%

CCCCCCOC(=O)c1ccccc1C(=O)OCCCCCC [Beispiel 66, Phthalsäuredihexylester]
Kornzahl der Ähre bei freier Bestäubung [3, 5]: 57,0
Kornzahl der Ähre im Isolator [3, 5]: 0,0
pest or weed control at 8000 g/ha [3]: 100%
response vs control in vivo at 8000 g/ha [3]: 100%

CCCCOC(=O)c1ccccc1C(=O)OCCCC [Beispiel 67, Phthalsäuredibutylester]
Kornzahl der Ähre bei freier Bestäubung [3, 5]: 50,5
Kornzahl der Ähre im Isolator [3, 5]: 0,0
pest or weed control at 8000 g/ha [3]: 100%
response vs control in vivo at 8000 g/ha [3]: 88.9%

CC1C=CCCC1C(=O)[O-].[K+] (stereo not shown) [Beispiel 89, Kaliumsalz der 2-Methyl-3-zyklohexen-karbonsäure]
Kornzahl der Rispe bei freier Bestäubung [4]: 304,3
Kornzahl der Rispe im Isolator [4]: 0,0
Prozentsatz der Sterilität [4]: 100,0%
Prozentsatz des Ansetzens der Körner bei freier Bestäubung [4]: 80,2%

COC(=O)C1CCC=CC1C (stereo not shown) [Beispiel 90, 2-Methyl-3-zyklohexenkarbonsäuremethylester]
Kornzahl der Rispe bei freier Bestäubung [4]: 327,6
Kornzahl der Rispe im Isolator [4]: 0,0
Prozentsatz der Sterilität [4]: 100,0%
Prozentsatz des Ansetzens der Körner bei freier Bestäubung [4]: 86,3%

CCCCCCOC(=O)c1ccccc1C(=O)OCCCCCC [Beispiel 91, Phthalsäuredihexylester]
Kornzahl der Rispe bei freier Bestäubung [4]: 311,5
Kornzahl der Rispe im Isolator [4]: 0,0
Prozentsatz der Sterilität [4]: 100,0%
Prozentsatz des Ansetzens der Körner bei freier Bestäubung [4]: 82,1%

CCCCOC(=O)c1ccccc1C(=O)OCCCC [Beispiel 92, Phthalsäuredibutylester]
Kornzahl der Rispe bei freier Bestäubung [4]: 351,4
Kornzahl der Rispe im Isolator [4]: 0,0
Prozentsatz der Sterilität [4]: 100,0%
Prozentsatz des Ansetzens der Körner bei freier Bestäubung [4]: 92,6%

CCCOC(=O)c1ccccc1C(=O)OCCC [Beispiel 93, Phthalsäuredipropylester]
Kornzahl der Rispe bei freier Bestäubung [4]: 308,7
Kornzahl der Rispe im Isolator [4]: 0,0
Prozentsatz der Sterilität [4]: 100,0%
Prozentsatz des Ansetzens der Körner bei freier Bestäubung [4]: 81,3%

O=C([O-])c1ccc(O)cc1.[Na+] [Beispiel 94, Natriumsalz der p-Hydroxybenzoesäure]
Kornzahl der Rispe bei freier Bestäubung [4]: 400,7
Kornzahl der Rispe im Isolator [4]: 0,0
Prozentsatz der Sterilität [4]: 100,0%
Prozentsatz des Ansetzens der Körner bei freier Bestäubung [4]: 105,6%

CCOC(=O)c1ccccc1C(=O)OCC [Beispiel 95, Phthalsäurediäthylester]
Kornzahl der Rispe bei freier Bestäubung [4]: 352,5
Kornzahl der Rispe im Isolator [4]: 0,0
Prozentsatz der Sterilität [4]: 100,0%
Prozentsatz des Ansetzens der Körner bei freier Bestäubung [4]: 92,6%

C=CCOC(=O)c1ccccc1C(=O)OCC=C [Beispiel 96, Phthalsäurediallylester]
Kornzahl der Rispe bei freier Bestäubung [4]: 335,2
Kornzahl der Rispe im Isolator [4]: 0,0
Prozentsatz der Sterilität [4]: 100,0%
Prozentsatz des Ansetzens der Körner bei freier Bestäubung [4]: 88,3%
